Laboratory results published in US20240285773A1, “METHODS OF TREATING MYELODYSPLASTIC SYNDROME AND MONITORING THE TREATMENT” (Geron Corporation, priority 2023, published 2024).
Values joined by “and” are separate entries in the source; they are usually repeats but may differ in a detail not shown here. Equal entries are not always repeated. [nps] = N3'→P5' thiophosphoramidate linkage; {Palm} = palmitoyl lipid

How the values were obtained:
[1] = test system: RBC transfusion-dependent patients with IPSS low or intermediate-1 risk MDS; assay: Phase 3 trial: RBC transfusion independence (RBC-TI); format: in vivo, human; details: for TI duration, median: Kaplan-Meier
Protocol: Patients were randomly assigned (based on a computer-generated schedule) in a 2:1 ratio to receive imetelstat or placebo, administered intravenously every 4 weeks until treatment discontinuation; crossover was not allowed. Randomization was stratified by prior RBC transfusion burden (≥4 to ≤6 or >6 units over an 8-week period during 16 weeks prior to randomization) and IPSS risk group (low or intermediate-1 risk). The starting dose of imetelstat was 7.5 mg/kg every four weeks. If a patient developed grade 3 or 4 hematologic and nonhematologic toxicities, dosing was held and, if necessary, reduced (Tables 2-4).
The primary end point was rate of RBC-TI for 8 consecutive weeks or longer. Key secondary end points included rate of 24-week TI, duration of TI, and the rate of hematologic response (hematologic improvement-erythroid [HI-E], based on modified International Working Group [IWG] 2006 criteria, and HI-E per revised IWG 2018). Additional secondary end points included relative change in number of RBC transfusions received by patients, relative change in hemoglobin, and safety. The changes in mutational status and in patient-reported fatigue over time (assessed by the Functional Assessment of Chronic Illness Therapy [FACIT] Fatigue Scale) were exploratory end points. Subgroup analyses were performed including baseline presence or absence of RS, prior RBC transfusion burden (≥4 to ≤6 or >6 RBC units/8-weeks during a 16-week period prior to randomization), and low or intermediate-1 IPSS risk categories. Subgroup analyses were also performed, including baseline mutation status as well as telomerase activity (TA), telomere lengths (TL), and human telomerase reverse transcriptase (hTERT) levels. Peripheral blood hematology, bone marrow evaluation, mutation assessment, and cytogenetic evaluation were performed centrally and responses assessed by an independent review committee (IRC). Rate of 1-year RBC-TI was reported as a post hoc analysis.
The data cutoff date for this primary analysis was 1 year after the last patient was randomized. All the efficacy analyses for primary and key secondary end points were conducted in the intent-to-treat population. […] The percentages of patients with a response for the two treatment groups were compared with a stratified Cochran-Mantel-Haenszel test at a two-sided significance level of 0.05 adjusting for stratification factors, prior RBC transfusion burden, and IPSS risk category low or intermediate-1. Multiplicity was accounted for by a sequential gatekeeping approach for the primary and key secondary end points, which were tested sequentially in the prespecified order of 8-week TI, followed by 24-week TI. Durations of RBC-TI were calculated by Kaplan-Meier method. Safety analyses were conducted in the safety population (all patients who received ≥1 dose of trial medication).
Treatment: In the patients from imetelstat treatment group, imetelstat sodium was administered as a 2-hour IV infusion every 4 weeks at 7.5 mg/kg. Supportive care, including RBC and platelet transfusions, myeloid growth factors (e.g., G-CSF (granulocyte colony stimulating factor)), and iron chelation therapy was administered as needed on study per investigator discretion. Control group received corresponding treatment without imetelstat.
End points and Analysis: • Primary end point: 8-week RBC TI. Proportion of patients without any RBC transfusion for at least eight consecutive weeks since entry to the trial (8-week TI). • Key secondary end points: • 24-week RBC TI; proportion of patients without any RBC transfusion for at least 24 consecutive weeks since entry to the trial (24-week TI). • Duration of TI; • Hematologic improvement-Erythroid (HI-E).
The 8-week RBC-TI rate was the proportion of patients without any RBC transfusion during any consecutive 8 weeks (56 days) starting from Study Day 1 until subsequent anti-cancer therapy, if any. […]

[2] = test system: bone marrow RS cells; assay: Reduction in bone marrow ring sideroblasts; design: species or system human; details: in vivo
Text: FIG. 20. […] Also, RBC-TI responders were higher in patients achieving ≥50% reduction in central bone marrow RS.

[3] = mutated transcription regulation genes
[4] = poor-prognosis genes mutated at baseline

Imetelstat: first-in-class telomerase inhibitor; synthetic lipid-conjugated 13-mer oligonucleotide N3′→P5′-thiophosphoramidate (TAGGGTTAGACAA; all [nps], 5' {Palm}, sugars by position and methylation of C not given here)
Difference in median RBC-TI duration vs placebo ([1]; 8-week TI responders): 38.3 week
Hazard ratio, duration of RBC-TI vs placebo ([1]; 8-week TI responders): 0.23
TI duration, median ([1]; 8-week TI responders): 51.6 weeks
TI duration, median ([1]; 8-week TI responders, listed as imetelstat): 51.6 weeks and 52 weeks
≥8-week TI rate ([1]; >1 baseline mutation): 42.7%
≥24-week TI rate ([1]; >1 baseline mutation): 26.7%
≥8-week TI rate ([1]; >2 baseline mutations): 45.5%
≥24-week TI rate ([1]; >2 baseline mutations): 33.3%
≥8-week TI rate ([1]; >3 baseline mutations): 55.6%
≥24-week TI rate ([1]; >3 baseline mutations): 33.3%
8-week TI response ([1]; ASXL1 mutations): 5/18
8-week TI response rate ([1]; ASXL1 mutations): (27.8) %
≥24-week TI rate ([1]; ASXL1 mutations): 11.1%
8-week TI response rate ([1]; ASXL1 mutations, listed as imetelstat): 27.8%
≥8-week TI rate ([1]; CUX1 mutations): 35.7%
≥24-week TI rate ([1]; CUX1 mutations): 14.3%
≥8-week TI rate ([1]; DNMT3A mutations): 31.6%
≥24-week TI rate ([1]; DNMT3A mutations): 26.3%
8-week TI response ([1]; ETV6 mutations): 1/2
8-week TI response rate ([1]; ETV6 mutations): (50.0) %
8-week TI response rate ([1]; ETV6 mutations, listed as imetelstat): 50%
8-week RBC-TI rate ([1]; IPSS intermediate-1 risk): 40%
8-week RBC-TI rate ([1]; IPSS low risk): 40%
8-week TI rate ([1]; ITT N=118): 39.8% and 40%
16-week TI rate ([1]; ITT N=118): 31.4%
16-week TI, patients ([1]; ITT N=118): 37 n
24-week TI rate ([1]; ITT N=118): 28%
24-week TI, patients ([1]; ITT N=118): 33 n
≥1-year TI rate ([1]; ITT N=118): 17.8% and 18%
≥1-year TI, patients ([1]; ITT N=118): 21 n
8-week TI, patients ([1]; ITT N=118, 7.5 mg/kg IV every 4 weeks): 47 n
8-week TI response ([1]; RUNX1 mutations): 0/2
8-week TI response rate ([1]; RUNX1 mutations): (0) %
≥8-Week RBC-TI ([1]; SF3B1 hot-spot A744P): 100%
≥8-Week RBC-TI ([1]; SF3B1 hot-spot E622D): 25.0%
≥8-Week RBC-TI ([1]; SF3B1 hot-spot E783K): 50.0%
≥8-Week RBC-TI ([1]; SF3B1 hot-spot H662Q/N/D/Y): 58.3%
≥8-Week RBC-TI ([1]; SF3B1 hot-spot K666R/T/Q/N): 33.3%
≥8-Week RBC-TI ([1]; SF3B1 hot-spot K700E): 43.9%
≥8-Week RBC-TI ([1]; SF3B1 hot-spot R625C/L/G): 57.1%
≥8-Week RBC-TI ([1]; SF3B1 hot-spot T663P): 100%
≥8-week TI rate ([1]; TET2 mutations): 50%
≥24-week TI rate ([1]; TET2 mutations): 40%
8-week TI response ([1]; TP53 mutations): 2/2
8-week TI response rate ([1]; TP53 mutations): (100) %
≥8-week TI rate ([1]; baseline SF3B1 mutations): 48.8%
≥24-week TI rate ([1]; baseline SF3B1 mutations): 35.4%
8-week RBC-TI responders with a single continuous RBC-TI period ([1]; in vivo): 83%
8-week TI responders who went on to achieve 24-week TI ([1]; in vivo): Approximately 70%
≥1-year TI among ≥8-week TI responders ([1]; in vivo): 44.7% and 45%
≥1-year TI among ≥24-week TI responders ([1]; in vivo): 63.6% and 64%
≥8-week TI rate ([1]; mutated RNA spliceosome genes): 43.8%
≥24-week TI rate ([1]; mutated RNA spliceosome genes): 30.2%
≥8-week TI rate ([1]; mutated epigenetic modifiers): 37.7%
≥24-week TI rate ([1]; mutated epigenetic modifiers): 27.5%
≥8-week TI rate ([1]; mutated receptors/kinases): 80.0%
≥24-week TI rate ([1]; mutated receptors/kinases): 80.0%
≥8-week TI rate [1, 3]: 40.0%
≥24-week TI rate [1, 3]: 20.0%
Median TI duration ([1]; patients who achieved 24-week TI): 80.0 weeks
8-week RBC-TI rate ([1]; patients with RS): 45%
24-week RBC-TI rate ([1]; patients with RS): 33%
Difference vs placebo in TI ≥24 weeks ([1]; patients with RS): 28%
8-week RBC-TI, patients ([1]; patients with RS (of 73)): 33 patients
8-week RBC-TI rate ([1]; patients without RS): 32%
24-week RBC-TI rate ([1]; patients without RS): 20%
Difference vs placebo in TI ≥24 weeks ([1]; patients without RS): 21%
8-week RBC-TI, patients ([1]; patients without RS (of 44)): 14 patients
8-week TI response [1, 4]: 7/22
8-week TI response rate [1, 4]: (31.8) %
≥24-week TI rate [1, 4]: 9.1%
8-week TI response rate ([1]; poor-prognosis genes mutated at baseline, listed as imetelstat): 31.8%
8-week RBC-TI rate ([1]; prior burden >6 units/8 weeks): 34%
8-week RBC-TI, patients ([1]; prior burden >6 units/8 weeks (of 56)): 19 patients
8-week RBC-TI rate ([1]; prior burden ≥4 to ≤6 units/8 weeks): 45%
8-week RBC-TI, patients ([1]; prior burden ≥4 to ≤6 units/8 weeks (of 62)): 28 patients
Median duration of TI ([1]; ≥1-year TI responders): 123 weeks
Patients achieving ≥50% reduction in bone marrow RS cells [2]: 41%
